Experimental data reported in article PMC9780942, “Antimicrobial Activity and Immunomodulatory Properties of Acidocin A, the Pediocin-like Bacteriocin with the Non-Canonical Structure” (Membranes, 2022).
Positions of bridges follow the written chain, without caps; N, C: chain ends. No end group written: not given here.

What was measured:
L. lactis MK43 = test: Antibacterial activity assay (MIC), two-fold serial dilutions in liquid medium; assay type: cell-based; settings: MHB, 0.1% BSA, 37 °C, 24 h, no visible growth
Procedure: Antibacterial activity of recombinant bacteriocins against a number of Gram-positive and Gram-negative bacteria (Table S2) was determined by the method of two-fold serial dilutions in a liquid medium. Two-fold serial dilutions of bacteriocins were prepared in sterile 96-well flat-bottom polystyrene microplates (Eppendorf, Hamburg, Germany) (Cat. No. 0030730.011) in a volume of 50 µL of sterile 0.1% bovine serum albumin (BSA) (SERVA Electrophoresis GmbH, Heidelberg, Germany) to prevent non-specific sorption of peptides to the surface of the plate wells [23]. Mid-log phase bacterial cultures were diluted with the 2x Mueller-Hinton broth (MHB) (Sigma-Aldrich, St. Louis, MO, USA) to a final cell concentration of 10^6 colony forming units (CFU) per mL. To determine the activity of bacteriocins against Listeria and Enterococci, 3% tryptic soy broth (TSB) (Merck-Millipore, Burlington, MA, USA) was used instead of MHB. Aliquots of 50 μL of diluted bacterial suspensions were added to each well of the plate, which was then incubated at 37 °C and 950 rpm for 24 h using thermostatable plate shaker PST-60HL-4 (Biosan, Riga, Latvia). As a negative control, 50 µL of the sterile growth medium (2xMHB or 6% TSB) was added to the wells containing 50 µL of 0.1% BSA. The values of the minimum inhibitory concentrations (MIC) were determined as the minimum concentration of the peptide, at which there was no visible growth of bacterial culture. Incubation for 2 h with 20 µg/mL chromogenic substrate resazurin (Sigma-Aldrich, St. Louis, MO, USA) was used to detect viable bacterial cells if they were difficult to visually detect. To study the effect of inorganic salts on the antimicrobial activity of bacteriocins, antibacterial activity assay was carried out in MHB medium supplemented with 0.9% NaCl.

[1] = tested on: E. coli ML-35p cytoplasmic membrane; test: Cytoplasmic membrane permeability assay with ONPG; assay type: cell-based; settings: PBS pH 7.4 with NaCl, 35 °C, absorbance 405 nm, three independent experiments
Procedure: The ability of the peptides to disrupt the integrity of bacterial membranes was assessed using chromogenic substrates that are unable to enter the intact cell. For these assays, E. coli strain ML-35p was chosen that constitutively expresses β-lactamase (secreted into the periplasmic space), β-galactosidase (that is active in cytoplasm), and lacks lactose permease. Nitrocefin, which is a substrate for lactamase, served as an indicator of increased outer membrane permeability. o-Nitrophenyl-β-D-galactopyranoside (ONPG), a substrate for […], was used to assess the integrity of the cytoplasmic membrane. The bacterial cultures were grown to stationary phase in 3% TSB medium at 37 °C overnight. The cells were washed three times with cold 10 mM phosphate-buffered saline (PBS), pH 7.4 ([…], 2.7 mM KCl, 10 mM Na2HPO4, 1.76 mM KH2PO4), and diluted to the concentration of 3.3 × 10^7 CFU/mL with 10 mM PBS (pH 7.4), containing increased concentration of NaCl (1.2%, or 205 mM) and dissolved nitrocefin (Merck-Millipore, Burlington, MA, USA) or ONPG (AppliChem GmbH, Darmstadt, Germany). […] The plate was incubated at 35 °C, 500 rpm, and the absorbance of the hydrolysis products of ONPG or nitrocefin was measured spectrophotometrically at regular intervals at 405 nm or 492 nm, respectively, using AF2200 microplate reader (Eppendorf, Hamburg, Germany). […]

L. monocytogenes EGD = test: Agar diffusion (spot-on-lawn) assay; assay type: cell-based, Listeria monocytogenes; settings: 1–10 µg peptide spotted on 3% TSB agar, 37 °C, 24 h
Procedure: Additionally, the activity of bacteriocins against L. monocytogenes EGD was qualitatively determined using agar diffusion (“spot-on-lawn”) assay. An amount of 5 µL of water solutions containing 1–10 µg of purified bacteriocins were applied to agar plates containing 3% TSB medium with mid-log phase culture of L. monocytogenes EGD diluted to a OD600 of about 0.001 (≅7 × 10^5 CFU/mL) and incubated overnight at 37 °C for 24 h. Antibiotic tetracycline (0.5 µg) was used as a positive control. The formation of visible zones of bacterial growth inhibition in places where bacteriocins were added indicated the presence of antimicrobial activity.

[2] = tested on: primary CD14+ blood monocytes; test: Cytokine response by human monocytes, multiplex xMAP; assay type: cell-based; settings: 2 µM peptide, 24 h, supernatant; for MCP-3: untreated control 52.14; for TNFa: untreated control 67.34; for PDGF-AB/BB: untreated control 86.09; for MIG: untreated control 205.59

Question: “TYYGNGVSCNKKGCSVDWGKAISIIGNNSAANLATGGAAGWKS (disulfide 9-14) [Avicin A]” was tested. Which “Minimum Inhibitory Concentration” value (L. lactis MK43) did it give?
Answer: >32 µM

Question: What about the “Effect on cytoplasmic membrane integrity (ONPG hydrolysis kinetics)” value [1] of the same sequence?
Answer: melittin >> acidocin A ≈ pediocin box mutants > peptides without a disulfide bond > avicin A >> AviA(T)

Question: What about the “Antimicrobial activity, zones of growth inhibition (qualitative)” value (L. monocytogenes EGD) of the same sequence?
Answer: high activity

Question: And the “Antimicrobial activity, zones of growth inhibition (qualitative)” value (L. monocytogenes EGD; listed as avicin A)?
Answer: presence of such activity

Question: And the IL-1b ([2]; untreated control 2.28)?
Answer: 17.13 pg/mL

Question: What about the IL-6 ([2]; untreated control 4.48) of the same sequence?
Answer: 2787 pg/mL

Question: And the VEGFa ([2]; untreated control 5.44)?
Answer: <1.52↓ pg/ml

Question: And the MIP-1a ([2]; untreated control 11.73)?
Answer: 6628 pg/mL

Question: What about the PDGF-AA ([2]; untreated control 12.5) of the same sequence?
Answer: 10.87 pg/mL

Question: What about the sCD40L ([2]; untreated control 15.86) of the same sequence?
Answer: 45.71 pg/mL

Question: What about the IP-10 ([2]; untreated control 19.67) of the same sequence?
Answer: 21.71 pg/mL

Question: What about the MIP-1b ([2]; untreated control 34.63) of the same sequence?
Answer: 3805 pg/mL

Question: What about the MCP-3 [2] of the same sequence?
Answer: 227 pg/mL

Question: And the MCP-3 ([2]; listed as AviA)?
Answer: 227.15 pg/mL

Question: And the TNFa [2]?
Answer: 17,982 pg/ml

Question: And the TNFa ([2]; listed as AviA)?
Answer: 17982 pg/mL

Question: And the PDGF-AB/BB [2]?
Answer: 99 pg/mL

Question: What about the PDGF-AB/BB ([2]; listed as AviA) of the same sequence?
Answer: 99.49 pg/mL

Question: What about the MIG [2] of the same sequence?
Answer: 729 pg/mL

Question: And the MIG ([2]; listed as AviA)?
Answer: 729.91 pg/mL

Question: What about the IL-1RA ([2]; untreated control 261.2) of the same sequence?
Answer: 253.61 pg/mL

Question: What about the GROa ([2]; untreated control 311.89) of the same sequence?
Answer: 4832 pg/mL

Question: What about the MDC ([2]; untreated control 463.06) of the same sequence?
Answer: 2303 pg/mL

Question: What about the MCP-1 ([2]; untreated control 464.5) of the same sequence?
Answer: 3950 pg/mL

Question: And the IL-8 ([2]; untreated control 12488)?
Answer: >36420↑ pg/ml

Question: What about the IL-7 ([2]; untreated control <0.20) of the same sequence?
Answer: <0.20↓ pg/ml

Question: What about the IL-18 ([2]; untreated control <0.20) of the same sequence?
Answer: <0.20↓ pg/ml

Question: What about the IL-5 ([2]; untreated control <0.26) of the same sequence?
Answer: <0.26↓ pg/ml

Question: And the IL-4 ([2]; untreated control <0.33)?
Answer: <0.33↓ pg/ml

Question: What about the TNFb ([2]; untreated control <0.49) of the same sequence?
Answer: 7.81 pg/mL

Question: And the TGF-a ([2]; untreated control <0.53)?
Answer: 2.38 pg/mL

Question: And the IL-3 ([2]; untreated control <0.68)?
Answer: <0.68↓ pg/ml

Question: And the IL-2 ([2]; untreated control <0.85)?
Answer: 0.86 pg/mL

Question: What about the IL-10 ([2]; untreated control <1.23) of the same sequence?
Answer: 4.28 pg/mL

Question: And the FLT-3L ([2]; untreated control <1.35)?
Answer: <1.35↓ pg/ml

Question: And the GM-CSF ([2]; untreated control <1.39)?
Answer: 12.72 pg/mL

Question: And the IL-15 ([2]; untreated control <1.45)?
Answer: 1.55 pg/mL

Question: And the “IL-12 (p70)” value ([2]; untreated control <1.58)?
Answer: <1.58↓ pg/ml

Question: What about the IFNg ([2]; untreated control <1.79) of the same sequence?
Answer: <1.79↓ pg/ml

Question: And the IL-17A ([2]; untreated control <2.00)?
Answer: <2.00↓ pg/ml

Question: And the IL-1a ([2]; untreated control <2.78)?
Answer: 10.22 pg/mL

Question: And the RANTES ([2]; untreated control <2.79)?
Answer: 638.27 pg/mL

Question: What about the IL-13 ([2]; untreated control <2.90) of the same sequence?
Answer: 7.71 pg/mL

Question: What about the G-CSF ([2]; untreated control <3.18) of the same sequence?
Answer: 190 pg/mL

Question: What about the “IL-12 (p40)” value ([2]; untreated control <3.18) of the same sequence?
Answer: 19.93 pg/mL

Question: What about the G-CSF ([2]; untreated control <3.18, listed as AviA) of the same sequence?
Answer: 190.3 pg/mL

Question: What about the IFNa2 ([2]; untreated control <3.89) of the same sequence?
Answer: 4.69 pg/mL

Question: What about the Eotaxin ([2]; untreated control <4.09) of the same sequence?
Answer: <4.09↓ pg/ml

Question: And the IL-9 ([2]; untreated control <4.87)?
Answer: 6.5 pg/mL

Question: What about the EGF ([2]; untreated control <4.94) of the same sequence?
Answer: 6.51 pg/mL

Question: And the IL-22 ([2]; untreated control <7.95)?
Answer: 15.81 pg/mL

Question: And the IL-27 ([2]; untreated control <11.45)?
Answer: 31.07 pg/mL

Question: What about the FGF-2 ([2]; untreated control <12.00) of the same sequence?
Answer: 33.02 pg/mL

Question: And the IL-17F ([2]; untreated control <14.61)?
Answer: <14.61↓ pg/ml

Question: What about the Fractalkine ([2]; untreated control <19.20) of the same sequence?
Answer: <19.20↓ pg/ml

Question: What about the IL-17E/IL-25 ([2]; untreated control <19.97) of the same sequence?
Answer: <19.97↓ pg/ml

Question: What about the M-GSF ([2]; untreated control <23.43) of the same sequence?
Answer: 261.13 pg/mL
